# Test results as given in publication PMC5423244, “Synthesis and Biological Evaluation of N-(5-(pyridin-2-yl)-1,3,4-thiadiazol-2-yl)benzamide Derivatives as Lipoxygenase Inhibitor with Potential Anticancer Activity” (Iranian Journal of Pharmaceutical Research : IJPR, 2017).
# Target: T1, SLO; 15-lipoxygenase-1 (15-LOX-1) (Glycine max, UniProt P08170)
# T1 construct: gene LOX1.1; SLO (abbreviation not spelt out); the introduction and aim speak of human 15-LO-1
# T1 sequence (P08170 1-839): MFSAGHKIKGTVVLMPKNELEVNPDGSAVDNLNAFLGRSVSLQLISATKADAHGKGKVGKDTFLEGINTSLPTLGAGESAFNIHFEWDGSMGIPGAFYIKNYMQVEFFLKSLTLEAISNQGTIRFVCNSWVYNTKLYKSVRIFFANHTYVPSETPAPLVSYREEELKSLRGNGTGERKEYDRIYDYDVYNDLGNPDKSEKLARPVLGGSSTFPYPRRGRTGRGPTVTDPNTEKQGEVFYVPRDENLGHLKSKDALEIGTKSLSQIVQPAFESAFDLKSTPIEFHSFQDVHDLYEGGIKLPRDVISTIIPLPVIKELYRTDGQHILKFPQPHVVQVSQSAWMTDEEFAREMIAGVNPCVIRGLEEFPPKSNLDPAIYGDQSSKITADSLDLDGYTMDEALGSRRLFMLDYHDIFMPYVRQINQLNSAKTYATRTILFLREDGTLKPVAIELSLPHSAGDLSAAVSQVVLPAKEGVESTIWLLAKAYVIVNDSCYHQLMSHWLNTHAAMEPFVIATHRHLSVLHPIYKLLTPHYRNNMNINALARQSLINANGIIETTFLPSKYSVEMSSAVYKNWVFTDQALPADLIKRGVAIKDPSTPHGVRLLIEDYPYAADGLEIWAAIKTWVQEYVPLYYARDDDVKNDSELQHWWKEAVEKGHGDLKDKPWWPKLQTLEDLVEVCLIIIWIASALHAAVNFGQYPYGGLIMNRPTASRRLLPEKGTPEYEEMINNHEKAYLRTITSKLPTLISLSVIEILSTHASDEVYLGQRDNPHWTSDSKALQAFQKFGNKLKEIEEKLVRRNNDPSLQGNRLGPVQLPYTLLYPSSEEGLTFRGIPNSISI
# Experiment: linoleic acid hydroperoxide by MBTH/DMAB/hemoglobin colour reaction, […] nm
# Format: biochemical
row,Structure (SMILES),inhibition at 200 µM [%]
1,"O=C(Nc1nnc(-c2ccccn2)s1)c1cccc(Cl)c1 [4b, 3-Chloro-N-(5-(pyridin-2-yl)-1,3,4-thiadiazol-2-yl)benzamide]",8
2,"O=C(Nc1nnc(-c2ccccn2)s1)c1ccccc1F [4d, 2-Fluoro-N-(5-(pyridin-2-yl)-1,3,4-thiadiazol-2-yl)benzamide]",17
3,"O=C(Nc1nnc(-c2ccccn2)s1)c1ccc(Cl)cc1 [4c, 4-Chloro-N-(5-(pyridin-2-yl)-1,3,4-thiadiazol-2-yl)benzamide]",12
4,"O=C(Nc1nnc(-c2ccccn2)s1)c1ccccc1Cl [4a, 2-Chloro-N-(5-(pyridin-2-yl)-1,3,4-thiadiazol-2-yl)benzamide]",8

# More lines, now with the values ahead:
row,inhibition at 200 µM [%],Structure (SMILES)
1,28,"COc1ccccc1C(=O)Nc1nnc(-c2ccccn2)s1 [4j, 2-Methoxy-N-(5-(pyridin-2-yl)-1,3,4-thiadiazol-2-yl)benzamide]"
2,13,"O=C(Nc1nnc(-c2ccccn2)s1)c1cccc(F)c1 [4e, 3-Fluoro-N-(5-(pyridin-2-yl)-1,3,4-thiadiazol-2-yl)benzamide]"
3,26,"COc1cccc(C(=O)Nc2nnc(-c3ccccn3)s2)c1 [4k, 3-Methoxy-N-(5-(pyridin-2-yl)-1,3,4-thiadiazol-2-yl)benzamide]"
4,25,"O=C(Nc1nnc(-c2ccccn2)s1)c1ccc(F)cc1 [4f, 4-Fluoro-N-(5-(pyridin-2-yl)-1,3,4-thiadiazol-2-yl)benzamide]"
5,14,"COc1ccc(C(=O)Nc2nnc(-c3ccccn3)s2)cc1 [4l, 4-Methoxy-N-(5-(pyridin-2-yl)-1,3,4-thiadiazol-2-yl)benzamide]"
